Where a name gives a salt, the structure may show the parent alone.
System: anesthetized guinea-pig
Assay: Inotropic effect and lethal dose, slow intravenous infusion (over 90 minutes) in anesthetized guinea-pig
Settings: Cavia porcellus, iv, 1.5 h, read-out: ED80 (inotropic potency, dose increasing +dP/dTmax by 80%)

Compound | ED80
CNCCCON=C1CC[C@]2(C)[C@H]3CC[C@]4(C)C(=O)CC[C@H]4[C@@H]3C/C(=N\O)[C@@]2(O)C1 (mixture of isomers) [I-cr, (E,Z) 3-(3-N-Methylaminopropoxyimino)-5α-hydroxy-6-(E)-hydroxyiminoandrostan-17-one hydrochloride] | 1.21 µmol/kg
C[C@H]1O[C@@H](O[C@H]2[C@@H](O)C[C@H](O[C@H]3[C@@H](O)C[C@H](O[C@H]4CC[C@@]5(C)[C@H](CC[C@@H]6[C@@H]5C[C@@H](O)[C@]5(C)[C@@H](C7=CC(=O)OC7)CC[C@]65O)C4)O[C@@H]3C)O[C@@H]2C)C[C@H](O)[C@@H]1O [digoxin, reference compound] | 0.29 µmol/kg

Same assay, conditions: Cavia porcellus, iv, 1.5 h, read-out: EDmax (dose inducing maximum positive inotropic effect)

Compound | ED (max)
CNCCCON=C1CC[C@]2(C)[C@H]3CC[C@]4(C)C(=O)CC[C@H]4[C@@H]3C/C(=N\O)[C@@]2(O)C1 (mixture of isomers) [I-cr, (E,Z) 3-(3-N-Methylaminopropoxyimino)-5α-hydroxy-6-(E)-hydroxyiminoandrostan-17-one hydrochloride] | 11.8 µmol/kg
C[C@H]1O[C@@H](O[C@H]2[C@@H](O)C[C@H](O[C@H]3[C@@H](O)C[C@H](O[C@H]4CC[C@@]5(C)[C@H](CC[C@@H]6[C@@H]5C[C@@H](O)[C@]5(C)[C@@H](C7=CC(=O)OC7)CC[C@]65O)C4)O[C@@H]3C)O[C@@H]2C)C[C@H](O)[C@@H]1O [digoxin, reference compound] | 0.65 µmol/kg

Same assay, conditions: Cavia porcellus, iv, 1.5 h, read-out: Emax % increase in +dP/dTmax

Compound | Emax
CNCCCON=C1CC[C@]2(C)[C@H]3CC[C@]4(C)C(=O)CC[C@H]4[C@@H]3C/C(=N\O)[C@@]2(O)C1 (mixture of isomers) [I-cr, (E,Z) 3-(3-N-Methylaminopropoxyimino)-5α-hydroxy-6-(E)-hydroxyiminoandrostan-17-one hydrochloride] | 180%
C[C@H]1O[C@@H](O[C@H]2[C@@H](O)C[C@H](O[C@H]3[C@@H](O)C[C@H](O[C@H]4CC[C@@]5(C)[C@H](CC[C@@H]6[C@@H]5C[C@@H](O)[C@]5(C)[C@@H](C7=CC(=O)OC7)CC[C@]65O)C4)O[C@@H]3C)O[C@@H]2C)C[C@H](O)[C@@H]1O [digoxin, reference compound] | 158%

Same assay, conditions: duration of the inotropic effect

Compound | % decrease from Emax after 20 min from the end of the infusion
CNCCCON=C1CC[C@]2(C)[C@H]3CC[C@]4(C)C(=O)CC[C@H]4[C@@H]3C/C(=N\O)[C@@]2(O)C1 (mixture of isomers) [I-cr, (E,Z) 3-(3-N-Methylaminopropoxyimino)-5α-hydroxy-6-(E)-hydroxyiminoandrostan-17-one hydrochloride] | 47%

Same assay, conditions: maximum dose infused in the survived animals

Compound | Maximum dose infused
CNCCCON=C1CC[C@]2(C)[C@H]3CC[C@]4(C)C(=O)CC[C@H]4[C@@H]3C/C(=N\O)[C@@]2(O)C1 (mixture of isomers) [I-cr, (E,Z) 3-(3-N-Methylaminopropoxyimino)-5α-hydroxy-6-(E)-hydroxyiminoandrostan-17-one hydrochloride] | 50.4 µmol/kg
C[C@H]1O[C@@H](O[C@H]2[C@@H](O)C[C@H](O[C@H]3[C@@H](O)C[C@H](O[C@H]4CC[C@@]5(C)[C@H](CC[C@@H]6[C@@H]5C[C@@H](O)[C@]5(C)[C@@H](C7=CC(=O)OC7)CC[C@]65O)C4)O[C@@H]3C)O[C@@H]2C)C[C@H](O)[C@@H]1O [digoxin, reference compound] | 1.16 µmol/kg

Biological target: Na+, K+-ATPase (Canis lupus familiaris, UniProt P50997)
Assay: biochemical
Design: species or system dog
Settings: Na+, K+-ATPase Inhibition IC50

Compound | IC50
C=C1CC2CC(=NOCCN)CCC2(C)C2CCC3(C)C(=O)CCC3C12 (mixture of isomers) [I-bx, (E,Z) 3-(2-Aminoethoxyimino)-7-methyleneandrostane-17-one hydrochloride] | 400 nM
C[C@H]1C[C@H]2CC(=NOCCN)CC[C@]2(C)[C@H]2CC[C@]3(C)C(=O)CC[C@H]3[C@H]12 (mixture of isomers) [I-by, (E,Z) 3-(2-Aminoethoxyimino)-7β-methylandrostane-17-dione hydrochloride] | 640 nM
C=C1C[C@H]2[C@@H]3CCC(=O)[C@@]3(C)CC[C@@H]2[C@@]2(C)CCC(=NOCCCNC)C[C@]12O (mixture of isomers) [I-ct, (E,Z) 3-(3-N-Methylaminopropoxyimino)-5α-hydroxy-6-methylenandrostan-17-one hydrochloride] | 1400 nM
C#CC1CC2C3CCC(=O)C3(C)CCC2C2(C)CCC(=NOCCCNC)CC12 (stereo not drawn) [I-cq, (E,Z) 3-(3-N-Methylaminopropoxyimino)-6α-ethynylandrostan-17-one hydrochloride] | 1200 nM
CC1CC2C3CCC(=O)C3(C)CCC2C2(C)CCC(=NOCCN)CC12 (single isomer, unassigned) [I-az, (E,Z) 3-(2-Aminoethoxyimino)-6β-methylandrostan-17-one hydrochloride] | 6000 nM
C/C=C1\C[C@@H]2[C@H](CC[C@]3(C)C(=O)CC[C@@H]23)[C@@]2(C)CCC(=NOCCN)C[C@H]12 (mixture of isomers) [I-bg, (E,Z) 3-(2-Aminoethoxyimino)-6-(E)-ethylidenandrostan-17-one hydrochloride] | 1100 nM
CC12CCC3C(C(=C(F)F)CC4CC(=NOCCN)CCC43C)C1CCC2=O (mixture of isomers) [I-ep, (E,Z) 3-(2-Aminoethoxyimino)-7-difluoromethyleneandrostane-17-one hydrochloride] | 87 nM
CNCCCON=C1CCC2(C)C(CC(=O)C3C4CCC(=O)C4(C)CCC32)C1 (mixture of isomers) [I-cu, (E,Z) 3-(3-N-Methylaminopropoxyimino)androstane-7,17-dione fumarate] | 390 nM

Same assay, conditions: dog kidney enzyme; read-out: Na+, K+-ATPase Inhibition IC50

Compound | IC50
CNCCCON=C1CC[C@@]2(C)[C@H](C1)[C@@H](C(N)=O)C[C@@H]1[C@@H]2CC[C@]2(C)C(=O)CC[C@@H]12 (mixture of isomers) [I-cn, (Z,E) 3-(3-N-Methylaminopropoxyimino)-6α-carbamoylandrostan-17-one hydrochloride] | 1900 nM
CNCCCOC1CCC2(C)C(C1)C(CO)CC1C3CCC(=O)C3(C)CCC12 (stereo not drawn) [I-du, 3β-(3-N-Methylaminopropoxy)-6α-hydroxymethylandrostane-17-one fumarate] | 1100 nM
C[C@]12CC[C@H]3[C@@H](C[C@@H](C#N)[C@@]4(O)CC(=NOCCN)CC[C@]34C)[C@@H]1CCC2=O (mixture of isomers) [I-ae, (E,Z) 3-(2-Aminoethoxyimino)-5α-hydroxy-6β-cyanoandrostane-17-one fumarate] | 11000 nM
C[C@]12CCC(=NOCCN)C[C@@H]1C[C@@H](CO)[C@@H]1[C@@H]2CC[C@]2(C)C(=O)CC[C@@H]12 (mixture of isomers) [I-bz, (E,Z) 3-(2-Aminoethoxyimino)-7α-hydroxymethylandrostane-17-one hydrochloride] | 1100 nM
CC12CCC3C(CC(C#N)C4CC(=NOCCN)CCC43C)C1CCC2=O (mixture of isomers) [I-ac, (E,Z) 3-(2-Aminoethoxyimino)-6α-cyanoandrostan-17-one fumarate] | 1100 nM
CNCCCON=C1CC[C@@]2(C)[C@H](C1)C[C@H](CO)[C@@H]1[C@@H]2CC[C@]2(C)C(=O)CC[C@@H]12 (mixture of isomers) [I-cw, (E,Z) 3-(3-N-Methylaminopropoxyimino)-7β-hydroxymethylandrostane-17-one hydrochloride] | 2300 nM
CNCCCON=C1CCC2(C)C3CCC4(C)C(=O)CCC4C3CC3(CC3)C2C1 (mixture of isomers) [I-cp, (E,Z) 3-(3-N-Methylaminopropoxyimino)-6-(spirocyclopropane)androstan-17-one hydrochloride] | 1300 nM
C=C1C[C@@H]2[C@H](CC[C@]3(C)C(=O)CC[C@@H]23)[C@@]2(C)CC[C@@H](SCCCN)CC12 (stereo partly drawn) [I-dz, 3α-(3-Aminopropylthio)-6-methyleneandrostane-17-one fumarate] | 1500 nM
CC12CCC3C(CC(O[N+](=O)[O-])C4CC(=NOCCN)CCC43C)C1CCC2=O (single isomer, unassigned) [I-ab, (E,Z) 3-(2-Aminoethoxyimino)-17-oxoandrostane-6β-yl nitrate fumarate] | 2900 nM
C[C@]12CCC(=NOCCN)C[C@@H]1CC1(CC1)[C@@H]1[C@@H]2CC[C@]2(C)C(=O)CC[C@@H]12 (mixture of isomers) [I-cb, (E,Z) 3-(2-Aminoethoxyimino)-7-(spirocyclopropane)androstan-17-one hydrochloride] | 130 nM
C=CCON=C1CC2CC(=NOCCN)CCC2(C)C2CCC3(C)C(=O)CCC3C12 (mixture of isomers) [I-bu, (E,Z)-3-(2-Aminoethoxyimino)-7-(E)-allyloxyiminoandrostan-17-one fumarate] | 3800 nM
CC(=O)OCC1CC2C3CCC(=O)C3(C)CCC2C2(C)CCC(=NOCCN)CC12 (stereo not drawn) [I-ap, (E,Z) 3-(2-Aminoethoxyimino)-6α-acetoxymethylandrostan-17-one fumarate] | 3000 nM
CC12CCC3C(C(=O)C(CO)C4CC(=NOCCN)CCC43C)C1CCC2=O (mixture of isomers) [I-cd, (E,Z) 3-(2-Aminoethoxyimino)-6α-hydroxymethylandrostane-7,17-dione hydrochloride] | 12 nM

Same assay, conditions: read-out: Na+, K+-ATPase Inhibition IC50

Compound | IC50
CC(C)(CN)ON=C1CC[C@@]2(C)C(C1)/C(=N/O)C[C@@H]1[C@@H]2CC[C@]2(C)C(=O)CC[C@@H]12 (stereo partly drawn) [I-eo, (E,Z) 3-(3-Amino-2-methyl-2-propoxyimino)-6-(E)-hydroxyiminoandrostane-17-one hydrochloride] | 20 nM
CC(=O)NC[C@H]1C[C@@H]2[C@H](CC[C@]3(C)C(=O)CC[C@@H]23)[C@@]2(C)CCC(=NOCCN)CC12 (stereo partly drawn) [I-bm, (E,Z) 3-(2-Aminoethoxyimino)-6α-acetamidomethylandrostan-17-one hydrochloride] | 3600 nM
C[C@]12CCC(=NOCCN)CC1C1(CO1)C[C@@H]1[C@@H]2CC[C@]2(C)C(=O)CC[C@@H]12 (stereo partly drawn) [I-bc, (E,Z)-3-(2-Aminoethoxyimino)androstane-6(R)-(spiro-2′-oxirane)-17-one hydrochloride] | 910 nM
C[C@]12CCC(=NOCCN)CC1C[C@@H](NC=O)[C@@H]1[C@@H]2CC[C@]2(C)C(=O)CC[C@@H]12 (stereo partly drawn) [I-bw, (E,Z)-3-(2-Aminoethoxyimino)-7α-formamidoandrostane-3,17-dione hydrochloride] | 6000 nM
CNCCCON=C1CC[C@]2(C)[C@H]3CC[C@]4(C)C(=O)CC[C@H]4[C@@H]3CC(=NOC)[C@@]2(O)C1 [I-cs, (E,Z) 3-(3-N-Methylaminopropoxyimino)-5α-hydroxy-6-(E)-methoxyimino-androstane-17-one fumarate] | 1100 nM
C[C@]12CC[C@@H](/C=C\CCCCN)CC1/C(=N/O)C[C@@H]1[C@@H]2CC[C@]2(C)C(=O)CC[C@@H]12 (stereo partly drawn) [I-dj, 3α-(6-Aminohex-1-(Z)-enyl)-6-(E)-hydroxyiminoandrostan-17-one fumarate] | 1300 nM
CNCCCON=C1CC[C@@]2(C)C(C1)[C@@H](CO)C(=O)[C@@H]1[C@@H]2CC[C@]2(C)C(=O)CC[C@@H]12 (stereo partly drawn) [I-ei, (E,Z) 3-(3-N-Methylaminopropoxyimino)-6α-hydroxymethylandrostane-7,17-dione fumarate] | 44 nM
C=C1C[C@@H]2[C@H](CC[C@]3(C)C(=O)CC[C@@H]23)[C@@]2(C)CCC(=NOCCN)CC12 (stereo partly drawn) [I-ah, (E,Z) 3-(2-Aminoethoxyimino)-6-methyleneandrostan-17-one hydrochloride] | 42 nM
C[C@]12CCC(=NOCCN)CC1C[C@@H](O)[C@@H]1[C@@H]2CC[C@]2(C)C(=O)CC[C@@H]12 (stereo partly drawn) [I-bv, (E,Z) 3-(2-Aminoethoxyimino)-7α-hydroxyandrostane-17-one fumarate] | 520 nM
C[C@]12CC/C(=N/OCCN)CC1[C@@H](C(N)=O)C[C@@H]1[C@@H]2CC[C@]2(C)C(=O)CC[C@@H]12 (stereo partly drawn) [I-as, (Z) 3-(2-Aminoethoxyimino)-6α-carbamoylandrostan-17-one hydrochloride] | 630 nM
C=C1C[C@@H]2[C@H](CC[C@]3(C)C(=O)CC[C@@H]23)[C@@]2(C)CC[C@@H]([S@+]([O-])CCCN)CC12 (stereo partly drawn) [I-ec, 3α-[(R)-3-Aminopropylsulfinyl]-6-methyleneandrostane-17-one fumarate] | 80000 nM
3α-(3-Aminopropylthio)-6-(E)-hydroxyiminoandrostane-17-one hemifumarate [I-dw] | 850 nM
